Measured values published in paper PMC4106346, “The Oligomeric States of the Purified Sigma-1 Receptor Are Stabilized by Ligands” (The Journal of Biological Chemistry, 2014).
Counter-ions that a name gives are not always drawn.

Key:
sigma-1 receptor (S1R) [1] = target: T1, sigma-1 receptor (S1R) (Cavia porcellus, UniProt Q60492); experiment: titration by ligand stabilization of the oligomer, analytical SEC with tryptophan fluorescence; assay type: binding; set-up: gene SIGMAR1
sigma-1 receptor (S1R) [2] = target: T1, sigma-1 receptor (S1R); experiment: ligand stabilization of the purified oligomer, analytical SEC; assay type: binding; set-up: gene SIGMAR1; MBP-4A-S1R, purified oligomer (peak 1)
sigma-1 receptor (S1R) [3] = target: T1, sigma-1 receptor (S1R); experiment: ligand stabilization of the purified oligomer at […] °C, analytical SEC; assay type: binding; set-up: gene SIGMAR1; MBP-4A-S1R, purified oligomer (peak 1)
sigma-1 receptor (S1R) [4] = target: T2, sigma-1 receptor (S1R) (Cavia porcellus, UniProt Q60492, H97A); experiment: radioligand filtration binding, […] (+)-[3H]pentazocine
T2 construct: gene SIGMAR1; MBP-4A-S1R
T2 sequence (Q60492 whole entry H97A): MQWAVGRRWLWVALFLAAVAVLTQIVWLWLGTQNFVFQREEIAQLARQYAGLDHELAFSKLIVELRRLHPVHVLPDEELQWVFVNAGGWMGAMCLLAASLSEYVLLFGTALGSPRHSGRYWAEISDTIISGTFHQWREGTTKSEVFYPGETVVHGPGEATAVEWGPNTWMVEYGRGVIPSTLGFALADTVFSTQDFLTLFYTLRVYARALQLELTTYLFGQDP

T1 sequence (Q60492 whole entry): as the sequence (Q60492 whole entry H97A) above, with A97H counted along it

CN(C)CCN(C)CCc1ccc(Cl)c(Cl)c1 [BD-1047, N-[2-(3,4-dichlorophenyl)ethyl]-N-methyl-2-(dimethylamino)ethylamine dihydrobromide]
Kd (sigma-1 receptor (S1R) [1]): ~7 nM

CCCCCCCCCCCCC/C=C/[C@@H](O)[C@@H](N)CO [sphingosine]
ligand stabilization of the purified oligomer, analytical SEC (sigma-1 receptor (S1R) [2]): the natural membrane lipid sphingosine gave a stabilizing interaction that was close to that of many of the synthetic ligands

c1ccc(CCCCN2CCC(c3ccccc3)CC2)cc1 [4-PPBP, 4-phenyl-1-(4-phenylbutyl)piperidine maleate]
ligand stabilization of the purified oligomer at 37 °C, analytical SEC (sigma-1 receptor (S1R) [3]): Tight-binding ligands 4-PPBP, BD-1047 and others stabilized the oligomeric states

CC(C)=CCN1CC[C@]2(C)c3cc(O)ccc3C[C@H]1[C@H]2C [(+)-pentazocine]
% of nonmutated binding (sigma-1 receptor (S1R) [4]): ~ 50 % of nonmutated binding
